Measurements reported in patent US12109176B1, “Effect of glycerol on biofilm forming bacteria and fungi that changes the microbes sensitivity to pro and anti-biofilm non-toxic, non-bonded plasma amino acids and amino acid derivatives” (priority 2023, dated 2024).
“Also recorded” adds a separate entry of the source.

Tests used:
[1] = system: bacterial (S. aureus) biofilm; assay: Bacterial biofilm inhibition assay; assay type: cell-based, Staphylococcus aureus
Method: (§1) Two types of biofilm assays were performed: an inhibition assay and a disruption assay. The inhibition assay assesses the compound's ability to prevent biofilm development, while the disruption assay assesses the compound's ability to break up an existing mature biofilm.
(§2) All bacterial biofilm solutions were prepared in Tryptic Soy Broth (TSB), supplemented with 1% glucose (henceforth referred to as TSB-G). All subsequent procedures were performed in a manner that maintained sterility. A solution of each amino acid or an amino acid derivative to be tested was prepared in weight to volume concentrations ranging from 0.1-5.0%. Amino acids and amino acid derivatives were also tested in combinations. Compound solutions were homogenized with gentle agitation in the dark (4° C., 24 hours) before use.
(§3) 32 Amino acids and 2 amino acid derivatives of the amino acid serine that occur freely in human blood were tested. […] 31 of the 32 amino acids that were tested were the L-Isomers. Glycine has no stereoisomers. The 2 amino acid derivatives, ethanolamine and phosphoethanolamine were also tested. All biofilm assays were performed using 384-well non-tissue culture-treated polystyrene plates. The fungal species tested are as follows: Candida albicans, Candida guilliermondii, Candida parapsilosis, Candida glabrata, Candida tropicalis and Candida dubliniensis. The bacterial species tested are as follows: Staphylococci (standard wild type and methicillin-resistant strain USA300), Escherichia coli, Pseudomonas aeruginosa and Staphylococcus epidermidis.
(§4) Bacterial strains were streaked on Blood Agar plates (5% sheep blood in Tryptic Soy Broth) and incubated at 37° C. for 24 hours. A single colony from each strain to be tested was inoculated in a TSB broth and grown for 12 hours, at 37° C. with shaking (225 rpm). For the bacterial biofilm inhibition assays, 1 μL of saturated overnight cell culture was added to either 80 μL of TSB-G, or TSB-G supplemented with the amino acid compound solution to be tested, in a 384-well plate. The cells were allowed to adhere to the plate for 60 minutes at 37° C. without shaking. The media was carefully aspirated and 80 μL of TSB-G, or TSB-G supplemented with the amino acid compound solution was added to the plate. The plate was further incubated for 24 hours at 37° C. without shaking. Media was carefully aspirated and the biofilm was measured by optical density at 600 nm. Eight or twelve replicates were performed for each tested condition and the reported values are normalized to the control (TSB-G media only). For the bacterial biofilm disruption assays, 80 µL of TSB-G was added to the plate, along with 1 μL of overnight cell culture. The cells were allowed to adhere to the plate for 60 minutes at 37° C. with no shaking. The media was carefully aspirated and 80 μL of TSB-G was added to the plate. The plate was further incubated for 24 hours at 37° C. with no shaking. Media was carefully aspirated from the mature biofilm and 80 μL of TSB-G, or TSB-G supplemented with the amino acid to be tested, was gently added to the plate. The plate was further incubated for 24 hours at 37° C. without shaking. Media was aspirated and the biofilm was measured by optical density at 600 nm. Twelve replicates were performed for each tested condition and the reported values are normalized to the control (TSB-G media only).

[2] = system: bacterial (S. aureus) biofilm; assay: Bacterial biofilm disruption assay; assay type: cell-based, Staphylococcus aureus
Method: as §1, §2, §3, §4

[3] = system: bacterial biofilm; assay: In vitro testing on bacterial biofilm (inhibition and/or disruption); assay type: cell-based; details: in vitro testing
Method: as §1, §2, §3, §4

[4] = system: fungal biofilm (C. albicans); assay: Fungal biofilm disruption assay; assay type: cell-based, Candida albicans
Method: as §1, §2, §3
(§5) Fungal strains were streaked on Yeast Peptone Dextrose (YPD) agar plates and incubated at 30° C. for 48 hours. A single colony from each strain to be tested was inoculated into YPD broth and grown for 12 hours at 30° C., shaking at 225 rpm. […] The cells were allowed to adhere to the plate for 90 minutes at 37° C. with shaking (350 rpm). […] The plate was further incubated for 24 hours at 37° C. with shaking (350 rpm). Media was carefully aspirated and the biofilm was measured by optical density at 600 nm. […] The cells were allowed to adhere to the plate for 90 minutes at 37° C. with shaking (350 rpm). […] The plate was further incubated for 24 hours at 37° C. with shaking (350 rpm). […] The plate was further incubated for 24 hours at 37° C. with shaking (350 rpm). Media was carefully aspirated, and the biofilm was measured by optical density at 600 nm.

[5] = system: bacterial (S. aureus) biofilm and fungal biofilm (C. albicans); assay: Biofilm inhibition assay, bacterial and fungal taken together; assay type: cell-based; details: symbol marks the assay
Method: as §1, §2, §3, §5
as §4, with “plate.” for “plate. The plate was further incubated for 24 hours at 37° C. without shaking. Media was aspirated and the biofilm was measured by optical density at 600 nm. Twelve replicates were performed for each tested condition and the reported values are normalized to the control (TSB-G media only).”

[6] = system: bacterial and fungal biofilm; assay: In vitro testing on bacterial and fungal biofilm (assay not told apart); assay type: cell-based; details: in vitro testing
Method: as §1, §2, §3, §5
as §4, with “plate.” for “plate. The plate was further incubated for 24 hours at 37° C. without shaking. Media was aspirated and the biofilm was measured by optical density at 600 nm. Twelve replicates were performed for each tested condition and the reported values are normalized to the control (TSB-G media only).”

[7] = system: fungal biofilm; assay: In vitro testing on fungal biofilm (inhibition and/or disruption); assay type: cell-based; details: in vitro testing
Method: as §1, §2, §3, §5

[8] = Table F, in the presence of a sufficient concentration of glycerol
[9] = Table D, Neutral = no effect on the biofilm
[10] = Table E, in the absence of an infusion of glycerol

| Compound | Reduce or Inhibit B Biofilm (dots: Disruption Biofilm Assay) ([2]; Table D, 0.1 to 5.0%) | Reduce or Inhibit B Biofilm (dots: Disruption Biofilm Assay) [2, 8] | effect on bacterial biofilm (in words) [3] | Reduce or Inhibit F Biofilm (dots: Disruption Biofilm Assay) ([4]; Table D, 0.1 to 5.0%) | Neutral (square: Inhibition Biofilm Assay) [5, 9] | Neutral (square: Inhibition Biofilm Assay) [5, 10] | Neutral (square: Inhibition Biofilm Assay) [5, 8] | further results |
| --- | --- | --- | --- | --- | --- | --- | --- | --- |
| NC(CCCC(=O)O)C(=O)O (stereo not shown) [2 Aminoadipic Acid, 2-aminoadipic acid] | ● (Single dot [ie. ●] signifies little effect on the Disruption Biofilm Assay (from about 10 to less than 30%)) | ● (Single dot [ie. ●] signifies little effect on the Disruption Biofilm Assay (from about 10 to less than 30%)) | antibacterial biofilm effect | – | – | – | – | Reduce or Inhibit B Biofilm (squares: Inhibition Biofilm Assay) ([1]; Table D, 0.1 to 5.0%): ▪ (Single square [ie. ▪] signifies little effect on the Inhibition Biofilm Assay (from about 10 to less than 30%)); Reduce or Inhibit B Biofilm (squares: Inhibition Biofilm Assay) [1, 8]: ▪ (Single square [ie. ▪] signifies little effect on the Inhibition Biofilm Assay (from about 10 to less than 30%)) |
| C[C@H](N)C(=O)O [Alanine, L-alanine] | – | – | promoted bacterial biofilm formation | ● (Single dot [ie. ●] signifies little effect on the Disruption Biofilm Assay (from about 10 to less than 30%)) | ▪ (Single square [ie. ▪] signifies little effect on the Inhibition Biofilm Assay (from about 10 to less than 30%)) | ▪ (Single square [ie. ▪] signifies little effect on the Inhibition Biofilm Assay (from about 10 to less than 30%)) | ▪ (Single square [ie. ▪] signifies little effect on the Inhibition Biofilm Assay (from about 10 to less than 30%)) | – |
| N[C@@H](CCSC[C@H](N)C(=O)O)C(=O)O [Cystathionine, L-cystathionine] | ● (Single dot [ie. ●] signifies little effect on the Disruption Biofilm Assay (from about 10 to less than 30%)) | ● (Single dot [ie. ●] signifies little effect on the Disruption Biofilm Assay (from about 10 to less than 30%)) | antibacterial biofilm effect | – | ▪ (Single square [ie. ▪] signifies little effect on the Inhibition Biofilm Assay (from about 10 to less than 30%)) | ▪ (Single square [ie. ▪] signifies little effect on the Inhibition Biofilm Assay (from about 10 to less than 30%)) | ▪ (Single square [ie. ▪] signifies little effect on the Inhibition Biofilm Assay (from about 10 to less than 30%)) | – |
| N[C@@H](Cc1c[nH]cn1)C(=O)O [Histidine, L-histidine] | – | – | – | – | ▪ (Single square [ie. ▪] signifies little effect on the Inhibition Biofilm Assay (from about 10 to less than 30%)) | ▪ (Single square [ie. ▪] signifies little effect on the Inhibition Biofilm Assay (from about 10 to less than 30%)) | ▪ (Single square [ie. ▪] signifies little effect on the Inhibition Biofilm Assay (from about 10 to less than 30%)) | effect on bacterial and fungal biofilm (in words) [6]: neutral, having no effect on biofilm; also recorded: neutral |
| N[C@@H](CCS)C(=O)O [Homocysteine, L-homocysteine] | – | – | – | – | – | – | – | effect on fungal biofilm (in words) [7]: antifungal biofilm effects |
| N[C@@H](Cc1ccccc1)C(=O)O [Phenylalanine, L-phenylalanine] | – | – | promoted bacterial biofilm formation | – | – | – | – | Promote B Biofilm (squares: Inhibition Biofilm Assay) ([1]; Table D, 0.1 to 5.0%): ▪ (Single square [ie. ▪] signifies little effect on the Inhibition Biofilm Assay (from about 10 to less than 30%)); Promote B Biofilm (squares: Inhibition Biofilm Assay) [1, 10]: ▪ (Single square [ie. ▪] signifies little effect on the Inhibition Biofilm Assay (from about 10 to less than 30%)) |
| NCCOP(=O)(O)O [Phospho-ethanolamine, phosphoethanolamine] | ● (Single dot [ie. ●] signifies little effect on the Disruption Biofilm Assay (from about 10 to less than 30%)) | ● (Single dot [ie. ●] signifies little effect on the Disruption Biofilm Assay (from about 10 to less than 30%)) | antibacterial biofilm effect | – | – | – | – | Reduce or Inhibit B Biofilm (squares: Inhibition Biofilm Assay) ([1]; Table D, 0.1 to 5.0%): ▪ (Single square [ie. ▪] signifies little effect on the Inhibition Biofilm Assay (from about 10 to less than 30%)); Reduce or Inhibit B Biofilm (squares: Inhibition Biofilm Assay) [1, 8]: ▪ (Single square [ie. ▪] signifies little effect on the Inhibition Biofilm Assay (from about 10 to less than 30%)) |
| N[C@@H](CO)C(=O)O [Serine, L-serine] | – | – | promoted bacterial biofilm formation | ● (Single dot [ie. ●] signifies little effect on the Disruption Biofilm Assay (from about 10 to less than 30%)) | – | – | – | Reduce or Inhibit F Biofilm (dots: Disruption Biofilm Assay) [4, 8]: ● (Single dot [ie. ●] signifies little effect on the Disruption Biofilm Assay (from about 10 to less than 30%)) |
| N[C@@H](Cc1c[nH]c2ccccc12)C(=O)O [Tryptophan, L-tryptophan] | – | – | promoted bacterial biofilm formation | ● (Single dot [ie. ●] signifies little effect on the Disruption Biofilm Assay (from about 10 to less than 30%)) | – | – | – | Reduce or Inhibit F Biofilm (dots: Disruption Biofilm Assay) [4, 8]: ● (Single dot [ie. ●] signifies little effect on the Disruption Biofilm Assay (from about 10 to less than 30%)) |
| N[C@@H](Cc1ccc(O)cc1)C(=O)O [Tyrosine, L-tyrosine] | – | – | – | – | – | – | – | effect on bacterial and fungal biofilm (in words) [6]: neutral effect on biofilm; effect on bacterial and fungal biofilm (in words) ([6]; listed as tyrosine): neutral, having no effect on biofilm |
